Assay results as given in PubChem BioAssay AID2060902 (Molecular Pharmacology Branch, DTP, NCI, 2025).
Values joined by “and” are separate entries in the source; they are usually repeats but may differ in a detail not shown here. Equal values may be shown once.

System: 485368-065-R3-J5-PDC spheroids with HUVEC/MSC, viability
Experiment: Anticancer human tumor 485368-065-R3-J5-PDC patient-derived pancreatic carcinoma cell line growth inhibition [RAS]
Settings: for viability, T/C: stronger effect = lower value
Source text: RAS pathway inhibitors in Combinations in Complex Spheroids
A high-throughput screen of multi-cell type tumor spheroids was designed to identify active combinations of RAS pathway inhibitors and targeted small molecules. Complex spheroids include a stromal component modeled by human endothelial cells (HUVEC) and fibroblasts modeled by human mesenchymal stem cells (MSCs). The concentration ranges selected for each drug and investigational agent were based upon clinically achievable concentrations if the clinical Cmax of the agent was known.
Compounds. The drugs and investigational agents: abemaciclib (NSC768073), cobimetinib (NSC768068), divarasib (GDC6063, NSC841802), docetaxel (NSC628503), GDC-1971 (RLY-1971, NSC841576), gemcitabine (NSC613327), inavolisib (NSC800729), ipatasertib (NSC767898), KB-0742 (NSC834161), MRTX-1133 (NSC836407), osimertinib (NSC779217), RMC-4630 (NSC839698), RMC-6236 (NSC851965), RMC-6291 (NSC852671), Ro-3306 (NSC812927), sapanisertib (NSC764658), SN-38 (NSC673596), staurosporine (NSC755774), SY5609 (NSC837396), and tovorafenib (DAY101, NSC766906), were obtained from the National Cancer Institute (NCI) Developmental Therapeutics Program Chemical Repository. The FDA-approved anticancer drug set is available from the NCI Developmental Therapeutics Program. […] The stock solutions were prepared in dimethyl sulfoxide (DMSO, Sigma-Aldrich, St. Louis, MO, cat. D2650) at 800-fold the tested concentration and stored at -70 degrees C prior to their use. All drugs and investigational agents were tested over a range starting from a high concentration at or near the clinical Cmax and decreasing in half-log increments. If the clinical Cmax for an agent had not been determined, the highest concentration tested was 10 microM.
Cell Culture. All cells were maintained in an incubator at 37 degrees C and 5% CO2 with 95% humidity. The PDC lines were cultured according to standard operating procedures established by the NCI PDMR. All PDCs were thawed and cultured in Matrigel-coated flasks prepared with a working solution of 1X Ham's F-12 nutrient mix, without supplementation (Invitrogen, Waltham, MA, cat. 11765054), 100 U/mL penicillin-streptomycin (Invitrogen, cat. 15140122), and 2.5% Matrigel (Corning Inc., Corning, NY, cat. 354248) for the first three passages. The 362531-283-R-J2-PDC and 782815-120-R-J1-PDC lines were cultured in 6C/Colon 1B media, which includes advanced DMEM/F-12 (Thermo Fisher Scientific, cat. 12634028), 10 mM HEPES (Thermo Fisher Scientific, cat. 15630080), 1X GlutaMAX supplement (Thermo Fisher Scientific, cat. 35050061), 0.1 mg/mL primocin (InvivoGen, San Diego, CA, cat. ant-pm-2), 10% defined fetal bovine serum, heat inactivated (HyClone Laboratories Inc., Logan, UT, cat. SH30070.03HI), 50% L-WRN conditioned media (ATCC, cat. CRL-3276), 1.25 mM N-Acetyl-L-cysteine (Sigma-Aldrich, cat. A9165), 10 mM nicotinamide (Sigma-Aldrich, cat. N0636), 1X B-27 supplement (Thermo Fisher Scientific, cat. 17504044), 1X N-2 supplement (Thermo Fisher Scientific, cat. 17502048), 50 ng/mL human EGF (Thermo Fisher Scientific, cat. PHG0311), and 10 microM Y-27632 dihydrochloride (Tocris Bioscience, cat. 1254). The K12877-001-R-J1-PDC line was cultured in 6I media, which includes all 6C/Colon 1B media plus 10 ng/mL human FGF-10 (PeproTech, cat. 100-26), 1 ng/mL human FGF-2 (PeproTech, cat. 100-18B), 1 µM prostaglandin E2 (Tocris Bioscience, cat. 2296), […] hydrocortisone (Sigma-Aldrich, cat. H4001), and […] bovine insulin (Sigma-Aldrich, cat. I6634). The K86415-001-R-J1-PDC line was cultured in 6D media, which includes all 6C/Colon 1B media components minus the L-WRN conditioned media. The 485176-168-R4-J1-PDC was cultured in PANC media, which includes all 6C/Colon 1B media plus 100 ng/mL human FGF-10 (PeproTech, cat. 100-26), 500 nM SB-431542 (Selleckchem, cat. S1067), and 10 nM gastrin (Tocris Bioscience, cat. 3006). […]

[1] = compound alone, run of 07/15/2024
[2] = compound alone, run of 07/09/2024
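Also: spheroids exposed to agents for seven days before readout.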

C#Cc1c(F)ccc2cc(O)cc(-c3ncc4c(N5CC6CCC(C5)N6)nc(OCC56CCCN5CC(F)C6)nc4c3F)c12 (centres undefined)
viability, T/C (compound 0.0316 µM): 105% [middle of 8 runs]
viability, T/C (compound 0.1 µM): 108% [middle of 8 runs]
viability, T/C (compound 0.316 µM): 100% [middle of 8 runs]
viability, T/C (compound 1 µM): 99.4% [middle of 8 runs]
viability, T/C (compound 3.16 µM): 76.5% [middle of 8 runs]
viability, T/C (compound 10 µM): 42.4% [middle of 8 runs]
IC50 [1]: 7.73 µM [middle of 8 runs]

C=CC(=O)N1CCN(c2nc(OCC3CCCN3C)nc3c(F)c(-c4nc(N)cc(C)c4C(F)(F)F)c(Cl)cc23)C(C)C1 (centres undefined)
viability, T/C (compound 0.00316 µM): 106% [middle of 12 runs]
viability, T/C (compound 0.01 µM, compound 0.0316 µM): 101%
viability, T/C (compound 0.01 µM, compound 0.1 µM): 98.5%
viability, T/C (compound 0.01 µM, compound 0.316 µM): 111%
viability, T/C (compound 0.01 µM, compound 1 µM): 97%
viability, T/C (compound 0.01 µM): 104% [middle of 12 runs]
viability, T/C (compound 0.0316 µM, compound 0.00316 µM): 102%
viability, T/C (compound 0.0316 µM, compound 0.01 µM): 110%
viability, T/C (compound 0.0316 µM, compound 0.1 µM): 107%
viability, T/C (compound 0.0316 µM, compound 0.316 µM): 107%
viability, T/C (compound 0.0316 µM, compound 1 µM): 113%
viability, T/C (compound 0.0316 µM): 106% [middle of 13 runs]
viability, T/C (compound 0.1 µM, compound 0.00316 µM): 116%
viability, T/C (compound 0.1 µM, compound 0.01 µM): 112%
viability, T/C (compound 0.1 µM, compound 0.0316 µM): 99.1%
viability, T/C (compound 0.1 µM, compound 0.316 µM): 107%
viability, T/C (compound 0.1 µM, compound 1 µM): 94%
viability, T/C (compound 0.1 µM): 101% [middle of 13 runs]
viability, T/C (compound 0.316 µM, compound 0.00316 µM): 103%
viability, T/C (compound 0.316 µM, compound 0.01 µM): 104%
viability, T/C (compound 0.316 µM, compound 0.0316 µM): 102%
viability, T/C (compound 0.316 µM, compound 0.1 µM): 108%
viability, T/C (compound 0.316 µM, compound 1 µM): 100%
viability, T/C (compound 0.316 µM): 106% [middle of 13 runs]
viability, T/C (compound 1 µM, compound 0.00316 µM): 112%
viability, T/C (compound 1 µM, compound 0.01 µM): 106%
viability, T/C (compound 1 µM, compound 0.0316 µM): 108%
viability, T/C (compound 1 µM, compound 0.1 µM): 101%
viability, T/C (compound 1 µM, compound 0.316 µM): 96.7%
viability, T/C (compound 1 µM): 101% [middle of 13 runs]
IC50 [1]: > 1000 nM
IC50 (curve of compound): > 1000 nM

C=CC(=O)Nc1cc(Nc2nccc(-c3cn(C)c4ccccc34)n2)c(OC)cc1N(C)CCN(C)C
viability, T/C (compound 0.00316 µM): 108% [middle of 4 runs]
viability, T/C (compound 0.01 µM): 94.1% [middle of 4 runs]
viability, T/C (compound 0.0316 µM): 109% [middle of 4 runs]
viability, T/C (compound 0.1 µM): 106% [middle of 4 runs]
viability, T/C (compound 0.316 µM): 104% [middle of 4 runs]
viability, T/C (compound 1 µM): 97.5% [middle of 4 runs]
IC50 (curve of compound): > 1000 nM

CC(C)n1nc(-c2ccc3oc(N)nc3c2)c2c(N)ncnc21
viability, T/C (compound 0.000316 µM): 106% [middle of 4 runs]
viability, T/C (compound 0.001 µM): 91.4% [middle of 4 runs]
viability, T/C (compound 0.00316 µM): 89% [middle of 4 runs]
viability, T/C (compound 0.01 µM): 65.8% [middle of 4 runs]
viability, T/C (compound 0.0316 µM): 42.8% [middle of 4 runs]
viability, T/C (compound 0.1 µM): 23.6% [middle of 4 runs]
IC50 (curve of compound): 22.7 nM [middle of 4 runs]

CC(Nc1ccc2c(c1)OCCn1cc(N3C(=O)OCC3C(F)F)nc1-2)C(N)=O (centres undefined)
viability, T/C (compound 0.0316 µM): 96.7% [middle of 4 runs]
viability, T/C (compound 0.1 µM): 90% [middle of 4 runs]
viability, T/C (compound 0.316 µM): 99.2% [middle of 4 runs]
viability, T/C (compound 1 µM): 82.1% [middle of 4 runs]
viability, T/C (compound 3.16 µM): 82% [middle of 4 runs]
viability, T/C (compound 10 µM): 58.4% [middle of 4 runs]
IC50 (curve of compound): > 10000 nM

CC1(C)CCC(Nc2ncc(C(F)(F)F)c(-c3c[nH]c4c(P(C)(C)=O)c(C#N)ccc34)n2)CN1 (centres undefined)
viability, T/C (compound 0.03 µM): 41.7% [middle of 4 runs]
viability, T/C (compound 0.0949 µM): 38.6% [middle of 4 runs]
viability, T/C (compound 0.3 µM): 39.7% [middle of 4 runs]

CCN1CCN(Cc2ccc(Nc3ncc(F)c(-c4cc(F)c5nc(C)n(C(C)C)c5c4)n3)nc2)CC1
viability, T/C (compound 0.00316 µM): 99.7% [middle of 4 runs]
viability, T/C (compound 0.01 µM): 91.6% [middle of 4 runs]
viability, T/C (compound 0.0316 µM): 90.2% [middle of 4 runs]
viability, T/C (compound 0.1 µM): 75.6% [middle of 4 runs]
viability, T/C (compound 0.316 µM): 59.6% [middle of 4 runs]
viability, T/C (compound 1 µM): 45.4% [middle of 4 runs]

CCc1c2c(nc3ccc(O)cc13)-c1cc3c(c(=O)n1C2)COC(=O)[C@]3(O)CC
viability, T/C (compound 0.000949 µM): 86.9% [middle of 4 runs]
viability, T/C (compound 0.003 µM): 34.5% [middle of 4 runs]
viability, T/C (compound 0.00949 µM): 14.6% [middle of 4 runs]
viability, T/C (compound 0.03 µM): 7.01% [middle of 4 runs]
viability, T/C (compound 0.0949 µM): 4.37% [middle of 4 runs]
viability, T/C (compound 0.3 µM): 3.18% [middle of 4 runs]
IC50 (curve of compound): 2.19 nM [middle of 4 runs]

CCn1c(-c2cc(N3CCN(C)CC3)cnc2C(C)OC)c2c3cc(ccc31)-c1csc(n1)CC(NC(=O)C1CC1C)C(=O)N1CCCC(N1)C(=O)OCC(C)(C)C2 (centres undefined)
viability, T/C (compound 0.000949 µM): 35.5% [middle of 8 runs]
viability, T/C (compound 0.003 µM): 22.9% [middle of 8 runs]
viability, T/C (compound 0.00949 µM): 17.3% [middle of 8 runs]
viability, T/C (compound 0.03 µM): 12.7% [middle of 8 runs]
viability, T/C (compound 0.0949 µM): 10.3% [middle of 7 runs]
viability, T/C (compound 0.3 µM): 8.88% [middle of 8 runs]
IC50 [2]: < 0.949 nM

CCn1c(-c2cccnc2C(C)OC)c2c3cc(ccc31)N1CCOC(CC(NC(=O)C(C(C)C)N(C)C(=O)C3(F)CCN(C(=O)C#CC(C)(C)N(C)C)CC3)C(=O)N3CCCC(N3)C(=O)OCC(C)(C)C2)C1 (centres undefined)
viability, T/C (compound 0.000949 µM): 102% [middle of 8 runs]
viability, T/C (compound 0.003 µM): 103% [middle of 8 runs]
viability, T/C (compound 0.00949 µM): 102% [middle of 8 runs]
viability, T/C (compound 0.03 µM): 97.4% [middle of 8 runs]
viability, T/C (compound 0.0949 µM): 98% [middle of 8 runs]
viability, T/C (compound 0.3 µM): 96.9% [middle of 8 runs]
IC50 [2]: > 300 nM

Nc1ccn(C2OC(CO)C(O)C2(F)F)c(=O)n1 (centres undefined)
viability, T/C (compound 0.00316 µM): 100% [middle of 4 runs]
viability, T/C (compound 0.01 µM): 29.2% [middle of 4 runs]
viability, T/C (compound 0.0316 µM): 10.9% [middle of 4 runs]
viability, T/C (compound 0.1 µM): 10.5% [middle of 4 runs]
viability, T/C (compound 0.316 µM): 12.1% [middle of 4 runs]
viability, T/C (compound 1 µM): 11.3% [middle of 4 runs]
IC50 (curve of compound): 7.13 nM and 6.64 nM and 6.75 nM

O=C(c1ccc(F)c(F)c1Nc1ccc(I)cc1F)N1CC(O)([C@@H]2CCCCN2)C1
viability, T/C (compound 0.00316 µM): 98.9% [middle of 4 runs]
viability, T/C (compound 0.01 µM): 69.2% [middle of 4 runs]
viability, T/C (compound 0.0316 µM): 54.5% [middle of 4 runs]
viability, T/C (compound 0.1 µM): 36.6% [middle of 4 runs]
viability, T/C (compound 0.316 µM): 26.7% [middle of 4 runs]
viability, T/C (compound 1 µM): 11.3% [middle of 4 runs]
IC50 (curve of compound): 42.7 nM [middle of 4 runs]
